PubChem BioAssay AID252 (DTP/NCI, 2004)
Several values for one entry are separate records, joined by “and”; a condition that tells them apart may be missing. Identical values can stand only once. Inconclusive results and toxic doses are left out.

Test system: BDF1 mice, intracerebral L1210 leukemia, survival T/C
Assay: NCI In Vivo Anticancer Drug Screen. Data for tumor model L1210 Leukemia (intracerebral) in B6D2F1 (BDF1) mice
Conditions: higher = longer survival
Procedure: The antitumor activity of compounds was measured in mice bearing transplantable tumors. Survival or tumor size were measured and the results are expressed as the measurement made in the treated group (T) divided by the measurement made in the vehicle treated control group (C). The tumor model used in this assay is L1210 Leukemia (intracerebral) in B6D2F1 (BDF1) mice

[1] = endpoint: mean survival time, dose: 150.0 mg/kg/injection, schedule: Q01DX001 (ip), vehicle: carboxymethylcellulose (CMC)

With `CCS(=O)(=O)Nc1cccc(Nc2c3cccc(C)c3nc3c(C)cccc23)c1OC` the T/C (endpoint: mean survival time, dose: 12.5 mg/kg/injection, schedule: Q01DX009 (ip), vehicle: water) was 117 % of control, the T/C (endpoint: mean survival time, dose: 12.5 mg/kg/injection, schedule: Q01DX009 (sc), vehicle: water) was 105 % of control and the T/C (endpoint: mean survival time, dose: 25.0 mg/kg/injection, schedule: Q01DX009 (ip), vehicle: water) was 92 % of control. The T/C (endpoint: mean survival time, dose: 25.0 mg/kg/injection, schedule: Q01DX009 (sc), vehicle: water) was 118 % of control, the T/C (endpoint: mean survival time, dose: 50.0 mg/kg/injection, schedule: Q01DX009 (sc), vehicle: water) was 113 % of control and the T/C (endpoint: mean survival time, dose: 100.0 mg/kg/injection, schedule: Q01DX009 (sc), vehicle: water) was 104 % of control.
`COc1cccnc1/C=N/NC(N)=S` was tested, and the T/C (endpoint: median survival time, dose: 1.5 mg/kg/injection, schedule: Q01DX009 (ip), vehicle: saline with Tween-80) was 101 % of control, the T/C (endpoint: median survival time, dose: 3.0 mg/kg/injection, schedule: Q01DX009 (ip), vehicle: saline with Tween-80) was 103 % of control and the T/C (endpoint: median survival time, dose: 6.0 mg/kg/injection, schedule: Q01DX009 (ip), vehicle: saline with Tween-80) was 110 % of control. For the same compound, the T/C (endpoint: median survival time, dose: 12.0 mg/kg/injection, schedule: Q01DX009 (ip), vehicle: saline with Tween-80) was 153 % of control.
`CN(N=O)C(=O)Nc1ccc(F)cc1` was tested, and the T/C (endpoint: mean survival time, dose: 75.0 mg/kg/injection, schedule: Q01DX001 (ip), vehicle: carboxymethylcellulose (CMC)) was 101 % of control and the T/C [1] was 103 % of control.
In the case of `O=NN(CCCl)C(=O)N[C@H]1CCC[C@@H](O)C1`, the T/C (endpoint: mean survival time, dose: 12.0 mg/kg/injection, schedule: Q01DX001 (ip), vehicle: saline with Tween-80) was 124 % of control, the T/C (endpoint: mean survival time, dose: 18.0 mg/kg/injection, schedule: Q01DX001 (ip), vehicle: saline with Tween-80) was 164 % of control and the T/C (endpoint: mean survival time, dose: 26.0 mg/kg/injection, schedule: Q01DX001 (ip), vehicle: saline with Tween-80) was 420 % of control. The T/C (endpoint: mean survival time, dose: 40.0 mg/kg/injection, schedule: Q01DX001 (ip), vehicle: saline with Tween-80) was 452 % of control, the T/C (endpoint: mean survival time, dose: 60.0 mg/kg/injection, schedule: Q01DX001 (ip), vehicle: saline with Tween-80) was 303 % of control and the T/C (endpoint: mean survival time, dose: 90.0 mg/kg/injection, schedule: Q01DX001 (ip), vehicle: saline with Tween-80) was 90 % of control.
With `COc1cc(NS(C)(=O)=O)ccc1Nc1c2ccccc2nc2ccccc12` the T/C (endpoint: mean survival time, dose: 0.5 mg/kg/injection, schedule: Q01DX009 (ip), vehicle: other) was 98 % of control, the T/C (endpoint: mean survival time, dose: 0.75 mg/kg/injection, schedule: Q01DX009 (ip), vehicle: saline) was 100 % of control and the T/C (endpoint: mean survival time, dose: 0.75 mg/kg/injection, schedule: Q01DX009 (sc), vehicle: saline) was 101 % of control. For the same compound, the T/C (endpoint: mean survival time, dose: 1.0 mg/kg/injection, schedule: Q01DX009 (ip), vehicle: other) was 92 % of control, the T/C (endpoint: mean survival time, dose: 1.25 mg/kg/injection, schedule: Q01DX009 (ip), vehicle: saline) was 97 % of control and the T/C (endpoint: mean survival time, dose: 1.25 mg/kg/injection, schedule: Q01DX009 (sc), vehicle: saline) was 94 % of control. For the same compound, the T/C (endpoint: mean survival time, dose: 1.5 mg/kg/injection, schedule: Q01DX009 (ip), vehicle: saline) was 100 % of control, the T/C (endpoint: mean survival time, dose: 1.5 mg/kg/injection, schedule: Q01DX009 (sc), vehicle: saline) was 93 % of control and the T/C (endpoint: mean survival time, dose: 1.8 mg/kg/injection, schedule: Q01DX009 (ip), vehicle: water) was 92 % of control. The T/C (endpoint: mean survival time, dose: 2.0 mg/kg/injection, schedule: Q01DX009 (ip), vehicle: other) was 105 % of control, the T/C (endpoint: mean survival time, dose: 2.5 mg/kg/injection, schedule: Q01DX009 (ip), vehicle: saline) was 108 % of control and 97 % of control and the T/C (endpoint: mean survival time, dose: 2.5 mg/kg/injection, schedule: Q01DX009 (sc), vehicle: saline) was 98 % of control and 95 % of control. For the same compound, the T/C (endpoint: mean survival time, dose: 3.0 mg/kg/injection, schedule: Q01DX009 (ip), vehicle: saline) was 102 % of control, the T/C (endpoint: mean survival time, dose: 3.0 mg/kg/injection, schedule: Q01DX009 (ip), vehicle: water) was 88 % of control and the T/C (endpoint: mean survival time, dose: 3.0 mg/kg/injection, schedule: Q01DX009 (sc), vehicle: saline) was 92 % of control. The T/C (endpoint: mean survival time, dose: 5.0 mg/kg/injection, schedule: Q01DX009 (ip), vehicle: saline) was 121 % of control and 108 % of control, the T/C (endpoint: mean survival time, dose: 5.0 mg/kg/injection, schedule: Q01DX009 (sc), vehicle: saline) was 101 % of control and 93 % of control and the T/C (endpoint: mean survival time, dose: 6.0 mg/kg/injection, schedule: Q01DX009 (ip), vehicle: saline) was 104 % of control. For the same compound, the T/C (endpoint: mean survival time, dose: 6.0 mg/kg/injection, schedule: Q01DX009 (sc), vehicle: saline) was 96 % of control, the T/C (endpoint: mean survival time, dose: 10.0 mg/kg/injection, schedule: Q01DX009 (ip), vehicle: saline) was 111 % of control and the T/C (endpoint: mean survival time, dose: 10.0 mg/kg/injection, schedule: Q01DX009 (sc), vehicle: saline) was 100 % of control and 98 % of control. For the same compound, the T/C (endpoint: mean survival time, dose: 20.0 mg/kg/injection, schedule: Q01DX009 (sc), vehicle: saline) was 109 % of control.
In the case of `COc1cc(NS(C)(=O)=O)ccc1Nc1c2ccccc2nc2c(C)cccc12`, the T/C (endpoint: mean survival time, dose: 2.5 mg/kg/injection, schedule: Q01DX009 (ip), vehicle: water) was 116 % of control and 113 % of control, the T/C (endpoint: mean survival time, dose: 2.5 mg/kg/injection, schedule: Q01DX009 (sc), vehicle: water) was 112 % of control and 111 % of control and the T/C (endpoint: mean survival time, dose: 5.0 mg/kg/injection, schedule: Q01DX009 (ip), vehicle: water) was 112 % of control. The T/C (endpoint: mean survival time, dose: 5.0 mg/kg/injection, schedule: Q01DX009 (sc), vehicle: water) was 105 % of control and 104 % of control and the T/C (endpoint: mean survival time, dose: 10.0 mg/kg/injection, schedule: Q01DX009 (sc), vehicle: water) was 103 % of control.
For `CCCCC(=O)N(c1ccc(Nc2c3ccccc3nc3cc([N+](=O)[O-])ccc23)cc1)S(C)(=O)=O`, the T/C (endpoint: mean survival time, dose: 3.18 mg/kg/injection, schedule: Q01DX009 (ip), vehicle: saline) was 96 % of control, the T/C (endpoint: mean survival time, dose: 3.18 mg/kg/injection, schedule: Q01DX009 (sc), vehicle: saline) was 104 % of control and the T/C (endpoint: mean survival time, dose: 6.25 mg/kg/injection, schedule: Q01DX009 (ip), vehicle: saline) was 99 % of control. For the same compound, the T/C (endpoint: mean survival time, dose: 6.25 mg/kg/injection, schedule: Q01DX009 (sc), vehicle: saline) was 105 % of control, the T/C (endpoint: mean survival time, dose: 12.5 mg/kg/injection, schedule: Q01DX009 (ip), vehicle: saline) was 101 % of control and the T/C (endpoint: mean survival time, dose: 12.5 mg/kg/injection, schedule: Q01DX009 (sc), vehicle: saline) was 103 % of control. For the same compound, the T/C (endpoint: mean survival time, dose: 25.0 mg/kg/injection, schedule: Q01DX009 (ip), vehicle: saline) was 97 % of control and the T/C (endpoint: mean survival time, dose: 25.0 mg/kg/injection, schedule: Q01DX009 (sc), vehicle: saline) was 102 % of control.
`CCN(N=O)C(N)=O` was tested, and the T/C (endpoint: mean survival time, dose: 67.0 mg/kg/injection, schedule: Q01DX001 (ip), vehicle: carboxymethylcellulose (CMC)) was 97 % of control, the T/C (endpoint: mean survival time, dose: 100.0 mg/kg/injection, schedule: Q01DX001 (ip), vehicle: carboxymethylcellulose (CMC)) was 105 % of control and the T/C [1] was 104 % of control.
With `CCOC1=C(N2CC2)C(=O)C(OCC)=C(N2CC2)C1=O` the T/C (endpoint: mean survival time, dose: 0.25 mg/kg/injection, schedule: Q01DX009 (ip), vehicle: saline) was 96 % of control, the T/C (endpoint: mean survival time, dose: 0.5 mg/kg/injection, schedule: Q01DX009 (ip), vehicle: saline) was 109 % of control and 93 % of control and the T/C (endpoint: mean survival time, dose: 1.0 mg/kg/injection, schedule: Q01DX009 (ip), vehicle: saline) was 108 % of control and 98 % of control. For the same compound, the T/C (endpoint: mean survival time, dose: 2.0 mg/kg/injection, schedule: Q01DX009 (ip), vehicle: saline) was 112 % of control and the T/C (endpoint: mean survival time, dose: 4.0 mg/kg/injection, schedule: Q01DX009 (ip), vehicle: saline) was 94 % of control.
`Nc1nc(=S)c2ncn(C3OC(CO)C(O)C3O)c2[nH]1` (stereo not drawn) was tested, and the T/C (endpoint: mean survival time, dose: 0.66 mg/kg/injection, schedule: Q01DX015 (ip), vehicle: carboxymethylcellulose (CMC)) was 105 % of control, the T/C (endpoint: mean survival time, dose: 1.0 mg/kg/injection, schedule: Q01DX015 (ip), vehicle: carboxymethylcellulose (CMC)) was 115 % of control and the T/C (endpoint: mean survival time, dose: 1.5 mg/kg/injection, schedule: Q01DX015 (ip), vehicle: carboxymethylcellulose (CMC)) was 121 % of control. The T/C (endpoint: mean survival time, dose: 95.0 mg/kg/injection, schedule: Q01DX001 (ip), vehicle: carboxymethylcellulose (CMC)) was 157 % of control, the T/C (endpoint: mean survival time, dose: 144.0 mg/kg/injection, schedule: Q01DX001 (ip), vehicle: carboxymethylcellulose (CMC)) was 171 % of control and the T/C (endpoint: mean survival time, dose: 215.0 mg/kg/injection, schedule: Q01DX001 (ip), vehicle: carboxymethylcellulose (CMC)) was 152 % of control.
With `COS(C)(=O)=O` the T/C (endpoint: median survival time, dose: 16.0 mg/kg/injection, schedule: Q01DX005 (ip), vehicle: saline) was 104 % of control, the T/C (endpoint: median survival time, dose: 32.0 mg/kg/injection, schedule: Q01DX005 (ip), vehicle: saline) was 99 % of control and the T/C (endpoint: median survival time, dose: 64.0 mg/kg/injection, schedule: Q01DX005 (ip), vehicle: saline) was 99 % of control. The T/C (endpoint: median survival time, dose: 128.0 mg/kg/injection, schedule: Q01DX005 (ip), vehicle: saline) was 101 % of control.
For `O=c1[nH]c(=O)n([C@H]2CCCO2)cc1F`, the T/C (endpoint: median survival time, dose: 23.0 mg/kg/injection, schedule: Q01DX009 (ip), vehicle: water) was 95 % of control, the T/C (endpoint: median survival time, dose: 39.0 mg/kg/injection, schedule: Q01DX009 (ip), vehicle: water) was 107 % of control and the T/C (endpoint: median survival time, dose: 65.0 mg/kg/injection, schedule: Q01DX009 (ip), vehicle: water) was 101 % of control. The T/C (endpoint: median survival time, dose: 65.0 mg/kg/injection, schedule: Q04DX003 (ip), vehicle: water) was 97 % of control, the T/C (endpoint: median survival time, dose: 108.0 mg/kg/injection, schedule: Q04DX003 (ip), vehicle: water) was 99 % of control and the T/C (endpoint: median survival time, dose: 180.0 mg/kg/injection, schedule: Q01DX009 (ip), vehicle: water) was 97 % of control. The T/C (endpoint: median survival time, dose: 180.0 mg/kg/injection, schedule: Q04DX003 (ip), vehicle: water) was 111 % of control.
